# Experimental data published in patent publication US8017782B2, “4-phenyl-5-oxo-1,4,5,6,7,8-hexahydroquinoline derivatives as medicaments for the treatment of infertility” (N.V. Organon, priority 2005, dated 2011).
# Target: T1, human FSH receptor (Homo sapiens, UniProt P23945)
# T1 construct: expressed in transfected cells; host or cells: Chinese Hamster Ovary (CHO) cells
# T1 sequence (P23945 18-695): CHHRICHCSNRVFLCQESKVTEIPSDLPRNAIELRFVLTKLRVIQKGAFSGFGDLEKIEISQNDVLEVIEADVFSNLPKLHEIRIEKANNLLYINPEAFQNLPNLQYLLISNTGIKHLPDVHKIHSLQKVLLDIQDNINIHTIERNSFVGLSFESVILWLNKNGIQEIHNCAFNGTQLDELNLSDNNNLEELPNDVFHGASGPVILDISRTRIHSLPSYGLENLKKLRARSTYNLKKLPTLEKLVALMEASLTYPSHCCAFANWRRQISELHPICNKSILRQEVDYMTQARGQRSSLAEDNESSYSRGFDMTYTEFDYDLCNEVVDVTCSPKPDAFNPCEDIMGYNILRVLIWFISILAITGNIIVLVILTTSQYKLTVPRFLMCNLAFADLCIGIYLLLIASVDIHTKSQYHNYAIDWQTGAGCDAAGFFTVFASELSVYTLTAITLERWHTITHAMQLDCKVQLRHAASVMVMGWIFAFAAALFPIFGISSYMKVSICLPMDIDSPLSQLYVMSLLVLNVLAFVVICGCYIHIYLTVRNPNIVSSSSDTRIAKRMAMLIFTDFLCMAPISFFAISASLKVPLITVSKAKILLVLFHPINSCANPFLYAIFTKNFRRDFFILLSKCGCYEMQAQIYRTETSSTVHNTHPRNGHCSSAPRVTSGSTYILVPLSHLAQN
# Assay: Agonistic activity at the human FSH receptor expressed in CHO cells (CRE-luciferase reporter)
# Format: cell-based
# Settings: CHO cells stably transfected with human FSH receptor and CRE/luciferase reporter; tested 0.1 nM to 10 μM; read-out: EC50 (concentration of test compound causing half-maximal (50%) luciferase stimulation)
# Description: Agonistic Activity of Compounds at the Human FSH Receptor Expressed in CHO Cells
# Agonist activity of the compounds at the human FSH receptor was tested in Chinese Hamster Ovary (CHO) cells stably transfected with the human FSH receptor and cotransfected with a cAMP responsive element (CRE)/promotor directing the expression of a firefly luciferase reporter gene. Binding of the compound to the Gs-coupled FSH receptor will result in an increase of cAMP, which in turn will induce an increased transactivation of the luciferase reporter construct. The luciferase activity was quantified using a luminescence counter. The compounds were tested in the concentration range of 0.1 nM to 10 μM. This assay was used to determine the EC50 (concentration of test compound causing half-maximal (50%) luciferase stimulation) and efficacy of the compounds compared to recombinant human FSH. For this, the software program XLfit (Excel version 2.0, built 30, ID Business Solutions Limited) was used.
row,EC50,Compound
1,< 10 nM,"CCCC1CC(=O)C2=C(C1)NC(C)=C(C#N)C2c1cc(Br)c(NCCOC)c(S(=O)(=O)N2CCOCC2)c1 (centres unmarked) [Example 31, 4-[3-Bromo-4-(2-methoxy-ethylamino)-5-(morpholine-4-sulfonyl)-phenyl]-2-methyl-5-oxo-7-propyl-1,4,5,6,7,8-hexahydro-quinoline-3-carbonitrile]"
2,< 10 nM,"CCCC1CC(=O)C2=C(C1)NC(C)=C(C#N)C2c1cc(Br)c(OCC=CC(=O)NCc2ccccn2)c(OCC)c1 (centres unmarked) [Example 12, 4-[2-Bromo-4-(3-cyano-2-methyl-5-oxo-7-propyl-1,4,5,6,7,8-hexahydro-quinolin-4-yl)-6-ethoxy-phenoxy]-but-2-enoic acid (pyridin-2-ylmethyl)-amide]"
3,< 10 nM,"CCCC1CC(=O)C2=C(C1)NC(C)=C(C#N)C2c1cc(Br)c(OCC=CCNC(=O)C2CC2)c(OCC)c1 (centres unmarked) [Example 3, Cyclopropanecarboxylic acid {4-[2-bromo-4-(3-cyano-2-methyl-5-oxo-7-propyl-1,4,5,6,7,8-hexahydro-quinolin-4-yl)-6-ethoxy-phenoxy]-but-2-enyl}-amide]"
4,< 10 nM,"CCCC1CC(=O)C2=C(C1)NC(C)=C(C#N)C2c1cc(Br)c(OCC=CCO)c(OCC)c1 (centres unmarked) [Example 28, 4-[3-Bromo-5-ethoxy-4-(4-hydroxy-but-2-enyloxy)-phenyl]-2-methyl-5-oxo-7-propyl-1,4,5,6,7,8-hexahydro-quinoline-3-carbonitrile]"
5,< 10 nM,"CCCC1CC(=O)C2=C(C1)NC(C)=C(C#N)C2c1cc(Br)c(OCCCCNC(=O)C(C)C)c(OCC)c1 (centres unmarked) [Example 13, N-{4-[2-Bromo-4-(3-cyano-2-methyl-5-oxo-7-propyl-1,4,5,6,7,8-hexahydro-quinolin-4-yl)-6-ethoxy-phenoxy]-butyl}-isobutyramide]"
6,< 10 nM,"CCCC1CC(=O)C2=C(C1)NC(C)=C(C#N)C2c1cc(Br)c(OCCCCCNC(=O)COC)c(OCC)c1 (centres unmarked) [Example 17, N-{5-[2-Bromo-4-(3-cyano-2-methyl-5-oxo-7-propyl-1,4,5,6,7,8-hexahydro-quinolin-4-yl)-6-ethoxy-phenoxy]-pentyl}-2-methoxy-acetamide]"
7,< 10 nM,"CCCC1CC(=O)C2=C(C1)NC(C)=C(C#N)C2c1cc(Br)c(OCCOCCO)c(S(=O)(=O)N(C)C)c1 (centres unmarked) [Example 23, 3-Bromo-5-(3-cyano-2-methyl-5-oxo-7-propyl-1,4,5,6,7,8-hexahydro-quinolin-4-yl)-2-[2-(2-hydroxy-ethoxy)-ethoxy]-N,N-dimethyl-benzenesulfonamide]"
8,< 10 nM,"CCCC1CC(=O)C2=C(C1)NC(C)=C(C#N)C2c1cc(Br)c(OCCOC)c(S(=O)(=O)N(C)C)c1 (centres unmarked) [Example 29, 3-Bromo-5-(3-cyano-2-methyl-5-oxo-7-propyl-1,4,5,6,7,8-hexahydro-quinolin-4-yl)-2-(2-methoxy-ethoxy)-N,N-dimethyl-benzenesulfonamide]"
9,< 10 nM,"CCCC1CC(=O)C2=C(C1)NC(C)=C(C#N)C2c1cc(Br)c(OCCOCCO)c(OC(C)C)c1 (centres unmarked) [Example 24, 4-{3-Bromo-4-[2-(2-hydroxy-ethoxy)-ethoxy]-5-isopropoxy-phenyl}-2-methyl-5-oxo-7-propyl-1,4,5,6,7,8-hexahydro-quinoline-3-carbonitrile]"
10,< 10 nM,"CCCC1CC(=O)C2=C(C1)NC(C)=C(C#N)C2c1cc(Br)c(NCCOC)c(S(=O)(=O)N2CCCC2)c1 (centres unmarked) [Example 32, 4-[3-Bromo-4-(2-methoxy-ethylamino)-5-(pyrrolidine-1-sulfonyl)-phenyl]-2-methyl-5-oxo-7-propyl-1,4,5,6,7,8-hexahydro-quinoline-3-carbonitrile]"
11,< 10 nM,"CCCC1CC(=O)C2=C(C1)NC(C)=C(C#N)C2c1cc(Br)c(OCCO)c(S(=O)(=O)N(C)C)c1 (centres unmarked) [Example 26, 3-Bromo-5-(3-cyano-2-methyl-5-oxo-7-propyl-1,4,5,6,7,8-hexahydro-quinolin-4-yl)-2-(2-hydroxy-ethoxy)-N,N-dimethyl-benzenesulfonamide]"
12,< 10 nM,"CCCC1CC(=O)C2=C(C1)NC(C)=C(C#N)C2c1cc(Br)c(OCCOCCNC(=O)C2CC2)c(OCC)c1 (centres unmarked) [Example 22, Cyclopropanecarboxylic acid (2-{2-[2-bromo-4-(3-cyano-2-methyl-5-oxo-7-propyl-1,4,5,6,7,8-hexahydro-quinolin-4-yl)-6-ethoxy-phenoxy]-ethoxy}-ethyl)-amide]"
13,< 10 nM,"CCCC1CC(=O)C2=C(C1)NC(C)=C(C#N)C2c1cc(Br)c(OCC=CCNC(=O)C(C)C)c(OCC)c1 (centres unmarked) [Example 2, N-{4-[2-Bromo-4-(3-cyano-2-methyl-5-oxo-7-propyl-1,4,5,6,7,8-hexahydro-quinolin-4-yl)-6-ethoxy-phenoxy]-but-2-enyl}-isobutyramide]"
14,< 10 nM,"CCCC1CC(=O)C2=C(C1)NC(C)=C(C#N)C2c1cc(Br)c(OCCOCCOC)c(S(=O)(=O)N(C)C)c1 (centres unmarked) [Example 30, 3-Bromo-5-(3-cyano-2-methyl-5-oxo-7-propyl-1,4,5,6,7,8-hexahydro-quinolin-4-yl)-2-[2-(2-methoxy-ethoxy)-ethoxy]-N,N-dimethyl-benzenesulfonamide]"
15,< 10 nM,"CCCC1CC(=O)C2=C(C1)NC(C)=C(C#N)C2c1cc(Br)c(OCCCCCCNS(=O)(=O)C(C)C)c(OCC)c1 (centres unmarked) [Example 20, Propane-2-sulfonic acid {6-[2-bromo-4-(3-cyano-2-methyl-5-oxo-7-propyl-1,4,5,6,7,8-hexahydro-quinolin-4-yl)-6-ethoxy-phenoxy]-hexyl}-amide]"
16,< 10 nM,"CCCC1CC(=O)C2=C(C1)NC(C)=C(C#N)C2c1cc(Br)c(OCC=CCNC(=O)OCC)c(OCC)c1 (centres unmarked) [Example 6, {4-[2-Bromo-4-(3-cyano-2-methyl-5-oxo-7-propyl-1,4,5,6,7,8-hexahydro-quinolin-4-yl)-6-ethoxy-phenoxy]-but-2-enyl}-carbamic acid ethyl ester]"
17,< 10 nM,"CCCC1CC(=O)C2=C(C1)NC(C)=C(C#N)C2c1cc(Br)c(OCC=CCNC(=O)COC)c(OCC)c1 (centres unmarked) [Example 5, N-{4-[2-Bromo-4-(3-cyano-2-methyl-5-oxo-7-propyl-1,4,5,6,7,8-hexahydro-quinolin-4-yl)-6-ethoxy-phenoxy]-but-2-enyl}-2-methoxy-acetamide]"
